From US9587005B2 (priority 2010, dated 2017)
Read-outs that look alike come from different tables or passages of the source. *1 amine or outer side, *2 acyl side, *3 side chain or, on linkers, in order; H or OH if unused. Where a SMILES comes first, the peptide text is derived from it. Where no end group is shown, it is not given here. Side-chain parts run from the residue outwards. [ ]: non-standard residue; d: D form. The star is where a group is joined. X5 = CCCCCCCCCCCCCCCC(=O)N[C@@H](CCC(=O)NCCCC[C@H](NC(=O)CC[C@H](NC(=O)CCCCCCCCCCCCCCC)C(=O)O)C(=O)*)C(=O)O; PEG8 = NCCOCCOCCOCCOCCOCCOCCOCCOCCC(=O)O; Phe(4-NH2) = Nc1ccc(C[C@H](N)C(=O)O)cc1; γGlu = O=C(O)[C@H](CCC(=O)[*:2])N[*:1]; X6 = CCCCCCCCCCCCCCCCC(CC(=O)*)C(=O)O; Palmitoyl = CCCCCCCCCCCCCCCC(=O)*; Aib = CC(C)(N)C(=O)O

Key:
Type in all cases: cell-based
[1] = target: T1, GLP-1 receptor (Homo sapiens, UniProt P43220); assay: cAMP induction, firefly luciferase reporter assay in HEK293 cells co-transfected with GLP-1 receptor; settings: for GLP-1R relative activity: Table 3, relative to the activity of the native hormone
T1 construct: expressed in transfected cells; host or cells: HEK293
T1 sequence (P43220 24-463): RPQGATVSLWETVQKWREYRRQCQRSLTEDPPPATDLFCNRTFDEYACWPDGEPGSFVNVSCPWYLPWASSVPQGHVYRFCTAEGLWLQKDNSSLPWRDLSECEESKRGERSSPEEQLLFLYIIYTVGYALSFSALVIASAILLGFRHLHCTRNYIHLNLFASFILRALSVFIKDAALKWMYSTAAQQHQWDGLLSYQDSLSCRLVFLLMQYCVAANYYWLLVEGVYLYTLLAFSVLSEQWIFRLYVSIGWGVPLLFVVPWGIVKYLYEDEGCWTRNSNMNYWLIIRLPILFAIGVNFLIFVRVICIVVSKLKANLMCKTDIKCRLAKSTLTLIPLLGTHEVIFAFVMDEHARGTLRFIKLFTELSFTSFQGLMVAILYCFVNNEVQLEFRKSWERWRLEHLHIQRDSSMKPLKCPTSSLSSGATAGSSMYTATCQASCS
From the text: (§1) This example describes an exemplary method of testing the biological activity of the peptides of the present disclosures, which method involves assaying cAMP synthesis.

[2] = target: T2, glucagon receptor (Homo sapiens, UniProt P47871); assay: cAMP induction, firefly luciferase reporter assay in HEK293 cells co-transfected with glucagon receptor; settings: for GR relative activity: Table 3, relative to the activity of the native hormone
T2 construct: expressed in transfected cells; host or cells: HEK293
T2 sequence (P47871 26-477): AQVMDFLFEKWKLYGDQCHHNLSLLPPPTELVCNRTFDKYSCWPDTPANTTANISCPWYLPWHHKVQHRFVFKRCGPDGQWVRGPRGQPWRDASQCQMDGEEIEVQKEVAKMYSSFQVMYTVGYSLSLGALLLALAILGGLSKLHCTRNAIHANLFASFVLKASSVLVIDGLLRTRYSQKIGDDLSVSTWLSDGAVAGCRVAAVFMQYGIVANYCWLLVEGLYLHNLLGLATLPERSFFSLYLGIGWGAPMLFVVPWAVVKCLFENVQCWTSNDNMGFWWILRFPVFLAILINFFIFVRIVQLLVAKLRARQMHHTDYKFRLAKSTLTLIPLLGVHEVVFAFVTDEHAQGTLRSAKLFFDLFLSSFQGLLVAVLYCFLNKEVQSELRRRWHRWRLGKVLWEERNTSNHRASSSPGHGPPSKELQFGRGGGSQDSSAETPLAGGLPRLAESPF
From the text: as §1

[3] = target: T3, GIP receptor (Homo sapiens, UniProt P48546); assay: cAMP induction, firefly luciferase reporter assay in HEK293 cells co-transfected with GIP receptor; settings: for GIPR relative activity: Table 3, relative to the activity of the native hormone
T3 sequence (P48546 22-466): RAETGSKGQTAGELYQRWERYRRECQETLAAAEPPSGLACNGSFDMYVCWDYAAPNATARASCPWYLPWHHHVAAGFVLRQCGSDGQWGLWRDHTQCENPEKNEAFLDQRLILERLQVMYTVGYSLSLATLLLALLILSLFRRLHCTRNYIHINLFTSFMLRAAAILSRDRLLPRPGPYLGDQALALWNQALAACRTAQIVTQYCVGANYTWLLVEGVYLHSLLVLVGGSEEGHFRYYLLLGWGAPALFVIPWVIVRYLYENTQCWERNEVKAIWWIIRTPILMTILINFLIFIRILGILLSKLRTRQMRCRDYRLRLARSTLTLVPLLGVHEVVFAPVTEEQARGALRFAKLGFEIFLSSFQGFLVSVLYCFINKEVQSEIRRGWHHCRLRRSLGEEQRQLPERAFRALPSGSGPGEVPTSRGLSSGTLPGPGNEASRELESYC

[4] = EC50 (nM) at GLP-1 Receptor, Table 7, Example 13
[5] = EC50 (nM) at Glucagon Receptor, Table 7, Example 13
[6] = EC50 (nM) at GIP Receptor, Table 7, Example 13
[7] = EC50 (nM) at GLP-1 receptor, Table 16, Example 24
[8] = EC50 (nM) at glucagon receptor, Table 16, Example 24
[9] = EC50 (nM) at GIP receptor, Table 16, Example 24
[10] = Table 3, Example 8, read-out: GLP-1R EC50
[11] = Table 3, Example 8, read-out: GIPR EC50

CCCCCCCCCCCCCCCC(=O)N[C@@H](CCC(=O)NCCCC[C@H](NC(=O)CC[C@H](NC(=O)CCCCCCCCCCCCCCC)C(=O)O)C(=O)NCCCC[C@H](NC(=O)[C@H](CO)NC(=O)[C@@H]1CCCN1C(=O)[C@@H]1CCCN1C(=O)[C@@H]1CCCN1C(=O)[C@H](C)NC(=O)CNC(=O)[C@H](CO)NC(=O)[C@H](CO)NC(=O)[C@@H]1CCCN1C(=O)CNC(=O)CNC(=O)[C@H](CC(=O)O)NC(=O)[C@H](CC(C)C)NC(=O)[C@H](CC(C)C)NC(=O)[C@H](Cc1c[nH]c2ccccc12)NC(=O)[C@H](CCC(N)=O)NC(=O)[C@@H](NC(=O)[C@H](Cc1ccccc1)NC(=O)[C@H](CC(=O)O)NC(=O)[C@H](CCC(N)=O)NC(=O)[C@H](C)NC(=O)[C@H](C)NC(=O)[C@H](CCCNC(=N)N)NC(=O)[C@H](CCC(=O)O)NC(=O)[C@H](CC(=O)O)NC(=O)[C@H](CC(C)C)NC(=O)[C@H](Cc1ccc(O)cc1)NC(=O)[C@H](CCCCN)NC(=O)[C@H](CO)NC(=O)[C@H](Cc1ccc(O)cc1)NC(=O)[C@H](CC(=O)O)NC(=O)[C@H](CO)NC(=O)[C@@H](NC(=O)[C@H](Cc1ccccc1)NC(=O)[C@@H](NC(=O)CNC(=O)[C@H](CCC(N)=O)NC(=O)C(C)(C)NC(=O)[C@@H](N)Cc1c[nH]cn1)[C@@H](C)O)[C@@H](C)O)C(C)C)C(N)=O)C(=O)O [SEQ ID NO: 161] (H-H[Aib]QGTFTSDYSKYLDERAAQDFVQWLLDGGPSSGAPPPSK(X5)-NH2)
EC50 ([1]; Table 12, Example 19, read-out: EC50 (cAMP, nmole) GLPR): 0.007 nM | EC50 ([2]; Table 12, Example 19, read-out: EC50 (cAMP, nmole) GCGR): 0.011 nM | EC50 ([3]; EC50 (cAMP, nmole) GIPR, Table 12, Example 19): 0.01 nM

CCCCCCCCCCCCCCCCC(CC(=O)Nc1ccc(C[C@H](NC(=O)[C@H](CC(=O)O)NC(=O)[C@H](CO)NC(=O)[C@@H](NC(=O)[C@H](Cc2ccccc2)NC(=O)[C@@H](NC(=O)CNC(=O)[C@H](CCC(=O)O)NC(=O)C(C)(C)NC(=O)[C@@H](N)Cc2ccc(O)cc2)[C@@H](C)O)[C@@H](C)O)C(=O)N[C@@H](CO)C(=O)N[C@H](C(=O)N[C@@H](Cc2ccc(O)cc2)C(=O)N[C@@H](CC(C)C)C(=O)N[C@@H](CC(=O)O)C(=O)N[C@@H](CCCCN)C(=O)N[C@@H](CCC(N)=O)C(=O)N[C@@H](C)C(=O)N[C@@H](C)C(=O)NC(C)(C)C(=O)N[C@@H](CCC(=O)O)C(=O)N[C@@H](Cc2ccccc2)C(=O)N[C@H](C(=O)N[C@@H](CC(N)=O)C(=O)N[C@@H](Cc2c[nH]c3ccccc23)C(=O)N[C@@H](CC(C)C)C(=O)N[C@@H](CC(C)C)C(=O)N[C@@H](C)C(=O)NCC(=O)NCC(=O)N2CCC[C@H]2C(=O)N[C@@H](CO)C(=O)N[C@@H](CO)C(=O)NCC(=O)N[C@@H](C)C(=O)N2CCC[C@H]2C(=O)N2CCC[C@H]2C(=O)N2CCC[C@H]2C(=O)N[C@@H](CO)C(N)=O)C(C)C)[C@@H](C)CC)cc1)C(=O)O (stereo partly shown) [SEQ ID NO: 144] (H-Y[Aib]EGTFTSD[Phe(4-NH2)](X6)SIYLDKQAA[Aib]EFVNWLLAGGPSSGAPPPS-NH2; N-terminus assumed)
EC50 [1]: 0.004 nM | EC50 [2]: > 0.5 nM | EC50 [3]: 0.013 nM

CCCCCCCCCCCCCCCC(=O)N[C@@H](CCC(=O)N[C@@H](CCC(=O)NCCCC[C@H](NC(=O)[C@H](CC(=O)O)NC(=O)[C@H](CO)NC(=O)[C@@H](NC(=O)[C@H](Cc1ccccc1)NC(=O)[C@@H](NC(=O)CNC(=O)[C@H](CCC(N)=O)NC(=O)C(C)(C)NC(=O)[C@@H](N)Cc1ccc(O)cc1)[C@@H](C)O)[C@@H](C)O)C(=O)N[C@@H](CO)C(=O)N[C@H](C(=O)N[C@@H](Cc1ccc(O)cc1)C(=O)N[C@@H](CC(C)C)C(=O)N[C@@H](CC(=O)O)C(=O)N[C@@H](CCCCN)C(=O)N[C@@H](CCC(N)=O)C(=O)N[C@@H](C)C(=O)N[C@@H](C)C(=O)NC(C)(C)C(=O)N[C@@H](CCC(=O)O)C(=O)N[C@@H](Cc1ccccc1)C(=O)N[C@H](C(=O)N[C@@H](CC(N)=O)C(=O)N[C@@H](Cc1c[nH]c2ccccc12)C(=O)N[C@@H](CC(C)C)C(=O)N[C@@H](CC(C)C)C(=O)N[C@@H](CC(=O)O)C(=O)NCC(=O)NCC(=O)N1CCC[C@H]1C(=O)N[C@@H](CO)C(=O)N[C@@H](CO)C(=O)NCC(=O)N[C@@H](C)C(=O)N1CCC[C@H]1C(=O)N1CCC[C@H]1C(=O)N1CCC[C@H]1C(=O)N[C@@H](CO)C(N)=O)C(C)C)[C@@H](C)CC)C(=O)O)C(=O)O [compound 91] (H-Y[Aib]QGTFTSDK([γGlu-γGlu-Palmitoyl])SIYLDKQAA[Aib]EFVNWLLDGGPSSGAPPPS-NH2; N-terminus assumed)
EC50 [1, 4]: 0.008 nM | EC50 [2, 5]: 0.073 nM | EC50 [3, 6]: 0.005 nM

H[Aib]QGTFTSDYSKYLDERAAQDFVQWLLAGGPSSGAPPPSK([γGlu-γGlu-Palmitoyl])G-NH2 [SEQ ID NO: 203]
EC50 [1, 7]: 0.001 nM | EC50 [2, 8]: 0.003 nM | EC50 [3, 9]: 0.007 nM

CCCCCCCCCCCCCCCC(=O)N[C@@H](CCC(=O)NCCCC[C@H](NC(=O)[C@H](CC(=O)O)NC(=O)[C@H](CO)NC(=O)[C@@H](NC(=O)[C@H](Cc1ccccc1)NC(=O)[C@@H](NC(=O)CNC(=O)[C@H](CCC(N)=O)NC(=O)C(C)(C)NC(=O)[C@@H](N)Cc1c[nH]cn1)[C@@H](C)O)[C@@H](C)O)C(=O)N[C@@H](CO)C(=O)N[C@@H](CCCCN)C(=O)N[C@@H](Cc1ccc(O)cc1)C(=O)N[C@@H](CC(C)C)C(=O)N[C@@H](CC(=O)O)C(=O)N[C@@H](CCC(=O)O)C(=O)N[C@@H](CCCNC(=N)N)C(=O)N[C@@H](C)C(=O)N[C@@H](C)C(=O)N[C@@H](CCC(N)=O)C(=O)N[C@@H](CC(=O)O)C(=O)N[C@@H](Cc1ccccc1)C(=O)N[C@H](C(=O)N[C@@H](CCC(N)=O)C(=O)N[C@@H](Cc1c[nH]c2ccccc12)C(=O)N[C@@H](CC(C)C)C(=O)N[C@@H](CC(C)C)C(=O)N[C@@H](CC(=O)O)C(=O)NCC(=O)NCC(=O)N1CCC[C@H]1C(=O)N[C@@H](CO)C(=O)N[C@@H](CO)C(=O)NCC(=O)N[C@@H](C)C(=O)N1CCC[C@H]1C(=O)N1CCC[C@H]1C(=O)N1CCC[C@H]1C(=O)N[C@@H](CO)C(N)=O)C(C)C)C(=O)O [compound 28]
EC50 ([1]; EC50 (nM) at GLP-1 Receptor, Table 4, Example 9, composite of multiple different activity assays): 0.002 nM | EC50 [1, 4]: 0.002 nM | EC50 ([2]; EC50 (nM) at Glucagon Receptor, Table 4, Example 9, composite of multiple different activity assays): 0.002 nM | EC50 [2, 5]: 0.002 nM | EC50 ([3]; EC50 (nM) at GIP Receptor, Table 4, Example 9, composite of multiple different activity assays): 0.003 nM | EC50 [3, 6]: 0.003 nM

Example 8 peptide: Tyr1, AIB2, Glu16/Lys20 lactam, Leu-Ala-Gly 27-29, GPSSGAPPPS 30-39, or a peptide lacking a lactam [mt-226]
EC50 [1, 10]: 0.097 nM | GLP-1R relative activity [1]: 29.90% | GR relative activity [2]: 1.56% | EC50 [3, 11]: 1.47 nM | GIPR relative activity [3]: 1.16%

H[Aib]QGTFTSDYSKYLDERAAQDFVQWLLDGGPSSGAPPPSK([PEG8-γGlu-Palmitoyl])G-NH2 [SEQ ID NO: 159]
EC50 ([1]; GLP-1 Receptor EC50, Table 11, Example 18): 0.005 nM | EC50 ([2]; Glucagon Receptor EC50, Table 11, Example 18): 0.006 nM | EC50 ([3]; GIP Receptor EC50, Table 11, Example 18): 0.002 nM

CCCCCCCCCCCCCCCC(=O)N[C@@H](CCC(=O)N[C@@H](CCC(=O)NCCCC[C@H](NC(=O)[C@H](CC(=O)O)NC(=O)[C@H](CO)NC(=O)[C@@H](NC(=O)[C@H](Cc1ccccc1)NC(=O)[C@@H](NC(=O)CNC(=O)[C@H](CCC(N)=O)NC(=O)C(C)(C)NC(=O)[C@@H](N)Cc1c[nH]cn1)[C@@H](C)O)[C@@H](C)O)C(=O)N[C@@H](CO)C(=O)N[C@@H](CCCCN)C(=O)N[C@@H](Cc1ccc(O)cc1)C(=O)N[C@@H](CC(C)C)C(=O)N[C@@H](CC(=O)O)C(=O)N[C@@H](CCC(=O)O)C(=O)N[C@@H](CCCNC(=N)N)C(=O)N[C@@H](C)C(=O)N[C@@H](C)C(=O)N[C@@H](CCC(N)=O)C(=O)N[C@@H](CC(=O)O)C(=O)N[C@@H](Cc1ccccc1)C(=O)N[C@H](C(=O)N[C@@H](CCC(N)=O)C(=O)N[C@@H](Cc1c[nH]c2ccccc12)C(=O)N[C@@H](CC(C)C)C(=O)N[C@@H](CC(C)C)C(=O)N[C@@H](CC(=O)O)C(=O)NCC(=O)NCC(=O)N1CCC[C@H]1C(=O)N[C@@H](CO)C(=O)N[C@@H](CO)C(=O)NCC(=O)N[C@@H](C)C(=O)N1CCC[C@H]1C(=O)N1CCC[C@H]1C(=O)N1CCC[C@H]1C(=O)N[C@@H](CO)C(=O)NCC(N)=O)C(C)C)C(=O)O)C(=O)O [SEQ ID NO: 207] (H-H[Aib]QGTFTSDK([γGlu-γGlu-Palmitoyl])SKYLDERAAQDFVQWLLDGGPSSGAPPPSG-NH2; N-terminus assumed)
EC50 [1, 7]: 0.002 nM | EC50 [2, 8]: 0.005 nM | EC50 [3, 9]: 0.015 nM

Example 8 peptide: Tyr1, AIB2, Glu16/Lys20 lactam, Leu-Ala-Gly 27-29, GPSSGAPPPS 30-39, or a peptide lacking a lactam [mt-218]
EC50 [1, 10]: 0.338 nM | GLP-1R relative activity [1]: 7.40% | GR relative activity [2]: 0.70% | EC50 [3, 11]: 14.3 nM | GIPR relative activity [3]: 0.13%
